In ChEMBL document CHEMBL3885861, “Open TG-GATES”:

Species on record: Rattus norvegicus
Test: Open TG-GATES - Regimen: Single
Format: toxicity, organism-based, Sprague-Dawley
Set-up: regimen Single, gender Male, age 6 weeks
Conditions: in vivo, po, route gavage; for APTT / Bas / Eos / Fbg / Hb / Ht / Lym / MCHC / MCV / Mono / Neu / PT / Plat / RBC / Ret / WBC: tissue Blood; for KIDNEY_L / KIDNEY_R / KIDNEY_TOTAL: tissue Kidney; for LIVER: tissue Liver
[1] = 100 mg/kg, 3 h, tissue Plasma, dose level Low
[2] = 100 mg/kg, 6 h, tissue Plasma, dose level Low
[3] = 100 mg/kg, 9 h, tissue Plasma, dose level Low
[4] = 100 mg/kg, 24 h, dose level Low
[5] = 100 mg/kg, 24 h, tissue Plasma, dose level Low
[6] = 300 mg/kg, 3 h, dose level Middle

CN(C)C(=N)N=C(N)N [METFORMIN] showed an APTT (100 mg/kg, 3 h, dose level Low) of 16 s, a Bas (100 mg/kg, 3 h, dose level Low) of 0% and an Eos (100 mg/kg, 3 h, dose level Low) of 0.8%. For the same molecule, the Fbg (100 mg/kg, 3 h, dose level Low) was 241.8 mg/dL, the Hb (100 mg/kg, 3 h, dose level Low) was 13.2 g/dL and the Ht (100 mg/kg, 3 h, dose level Low) was 39.9%. The Lym (100 mg/kg, 3 h, dose level Low) was 77.2%, the MCHC (100 mg/kg, 3 h, dose level Low) was 33.1% and the MCV (100 mg/kg, 3 h, dose level Low) was 65.8 fL. The Mono (100 mg/kg, 3 h, dose level Low) was 3.4%, the Neu (100 mg/kg, 3 h, dose level Low) was 18.2% and the PT (100 mg/kg, 3 h, dose level Low) was 12.3 s. The Plat (100 mg/kg, 3 h, dose level Low) was 118.9 x10_4/uL, the RBC (100 mg/kg, 3 h, dose level Low) was 607.2 x10_4/ul and the Ret (100 mg/kg, 3 h, dose level Low) was 10%. The WBC (100 mg/kg, 3 h, dose level Low) was 81.3 x10_2/uL, the KIDNEY_L (100 mg/kg, 3 h, dose level Low) was 0.9 g and the KIDNEY_R (100 mg/kg, 3 h, dose level Low) was 0.8 g. For the same molecule, the KIDNEY_TOTAL (100 mg/kg, 3 h, dose level Low) was 1.7 g, the LIVER (100 mg/kg, 3 h, dose level Low) was 8.3 g and the ALP [1] was 1250.2 IU/L. For the same molecule, the AST [1] was 72.4 IU/L, the BUN [1] was 8.4 mg/dL and the CRE [1] was 0.2 mg/dL. It also gave a Ca [1] of 11.2 mg/dL, a Cl [1] of 105.2 meq/L and a DBIL [1] of 0.008 mg/dL. The GLC [1] was 168.4 mg/dL, the IP [1] was 8.7 mg/dL and the K [1] was 4.3 meq/L. The LDH [1] was 62.6 IU/L, the Na [1] was 139.4 meq/L and the PL [1] was 135.8 mg/dL. For the same molecule, the RALB [1] was 2.5 g/dL, the TBIL [1] was 0.042 mg/dL and the TC [1] was 83.6 mg/dL. The TG [1] was 54.6 mg/dL, the TP [1] was 5.1 g/dL and the gamma-GTP [1] was 1.2 IU/L. The TERMINAL_BW (100 mg/kg, 6 h, dose level Low) was 200.6 g, the APTT (100 mg/kg, 6 h, dose level Low) was 16 s and the Bas (100 mg/kg, 6 h, dose level Low) was 0%. It also gave an Eos (100 mg/kg, 6 h, dose level Low) of 0.8%, a Fbg (100 mg/kg, 6 h, dose level Low) of 249 mg/dL and a Hb (100 mg/kg, 6 h, dose level Low) of 12.8 g/dL. It also gave a Ht (100 mg/kg, 6 h, dose level Low) of 38.8%, a Lym (100 mg/kg, 6 h, dose level Low) of 75.2% and an MCHC (100 mg/kg, 6 h, dose level Low) of 33%. It also gave an MCV (100 mg/kg, 6 h, dose level Low) of 63.6 fL, a Mono (100 mg/kg, 6 h, dose level Low) of 3.4% and a Neu (100 mg/kg, 6 h, dose level Low) of 19.6%. It also gave a PT (100 mg/kg, 6 h, dose level Low) of 12.4 s, a Plat (100 mg/kg, 6 h, dose level Low) of 125.3 x10_4/uL and an RBC (100 mg/kg, 6 h, dose level Low) of 610.4 x10_4/ul. It also gave a Ret (100 mg/kg, 6 h, dose level Low) of 9.8%, a WBC (100 mg/kg, 6 h, dose level Low) of 95.4 x10_2/uL and a KIDNEY_L (100 mg/kg, 6 h, dose level Low) of 0.9 g. For the same molecule, the KIDNEY_R (100 mg/kg, 6 h, dose level Low) was 0.9 g, the KIDNEY_TOTAL (100 mg/kg, 6 h, dose level Low) was 1.7 g and the LIVER (100 mg/kg, 6 h, dose level Low) was 7.8 g. The ALT [2] was 55.4 IU/L, the AST [2] was 84.6 IU/L and the BUN [2] was 8.2 mg/dL. For the same molecule, the CRE [2] was 0.1 mg/dL, the Ca [2] was 10.8 mg/dL and the Cl [2] was 105.4 meq/L. The DBIL [2] was 0.008 mg/dL, the GLC [2] was 168.4 mg/dL and the IP [2] was 10.2 mg/dL. For the same molecule, the K [2] was 4.2 meq/L, the LDH [2] was 71.8 IU/L and the Na [2] was 139.2 meq/L. It also gave a PL [2] of 124 mg/dL, an RALB [2] of 2.4 g/dL and a TBIL [2] of 0.046 mg/dL. The TG [2] was 26.8 mg/dL, the TP [2] was 5 g/dL and the gamma-GTP [2] was 1.2 IU/L. The TERMINAL_BW (100 mg/kg, 9 h, dose level Low) was 201.1 g, the APTT (100 mg/kg, 9 h, dose level Low) was 16.1 s and the Bas (100 mg/kg, 9 h, dose level Low) was 0%. For the same molecule, the Eos (100 mg/kg, 9 h, dose level Low) was 1%, the Fbg (100 mg/kg, 9 h, dose level Low) was 233.4 mg/dL and the Hb (100 mg/kg, 9 h, dose level Low) was 13 g/dL. It also gave a Ht (100 mg/kg, 9 h, dose level Low) of 38.8%, a Lym (100 mg/kg, 9 h, dose level Low) of 75.2% and an MCHC (100 mg/kg, 9 h, dose level Low) of 33.4%. It also gave an MCV (100 mg/kg, 9 h, dose level Low) of 64 fL, a Mono (100 mg/kg, 9 h, dose level Low) of 2.8% and a Neu (100 mg/kg, 9 h, dose level Low) of 20.4%. The PT (100 mg/kg, 9 h, dose level Low) was 12.6 s, the Plat (100 mg/kg, 9 h, dose level Low) was 114.4 x10_4/uL and the RBC (100 mg/kg, 9 h, dose level Low) was 607.4 x10_4/ul. For the same molecule, the Ret (100 mg/kg, 9 h, dose level Low) was 9%, the WBC (100 mg/kg, 9 h, dose level Low) was 79.5 x10_2/uL and the KIDNEY_L (100 mg/kg, 9 h, dose level Low) was 0.9 g. It also gave a KIDNEY_R (100 mg/kg, 9 h, dose level Low) of 0.9 g, a KIDNEY_TOTAL (100 mg/kg, 9 h, dose level Low) of 1.8 g and an LIVER (100 mg/kg, 9 h, dose level Low) of 7.2 g. For the same molecule, the ALP [3] was 1288.4 IU/L, the ALT [3] was 46.6 IU/L and the AST [3] was 75 IU/L. It also gave a BUN [3] of 9.8 mg/dL, a CRE [3] of 0.1 mg/dL and a Ca [3] of 10.7 mg/dL. It also gave a Cl [3] of 105.4 meq/L, a DBIL [3] of 0.01 mg/dL and a GLC [3] of 166.4 mg/dL. It also gave an IP [3] of 10.2 mg/dL, a K [3] of 4.2 meq/L and an LDH [3] of 49 IU/L. It also gave a Na [3] of 140 meq/L, a PL [3] of 118.4 mg/dL and an RALB [3] of 2.5 g/dL. It also gave a TBIL [3] of 0.044 mg/dL, a TG [3] of 30 mg/dL and a TP [3] of 5.1 g/dL. For the same molecule, the gamma-GTP [3] was 1 IU/L, the TERMINAL_BW [4] was 208.9 g and the APTT [4] was 16.6 s. It also gave a Bas [4] of 0%, an Eos [4] of 1% and a Fbg [4] of 242.6 mg/dL. It also gave a Hb [4] of 13 g/dL, a Ht [4] of 38.6% and a Lym [4] of 75%. For the same molecule, the MCHC [4] was 33.6%, the MCV [4] was 64.8 fL and the Mono [4] was 3.6%. For the same molecule, the Neu [4] was 19.8%, the PT [4] was 12.4 s and the Plat [4] was 109.9 x10_4/uL. The RBC [4] was 596 x10_4/ul, the Ret [4] was 8.8% and the WBC [4] was 95.2 x10_2/uL. For the same molecule, the KIDNEY_L [4] was 0.9 g, the KIDNEY_R [4] was 0.9 g and the KIDNEY_TOTAL [4] was 1.8 g. For the same molecule, the LIVER [4] was 10.1 g, the ALP [5] was 1691 IU/L and the ALT [5] was 51.6 IU/L. For the same molecule, the AST [5] was 80.8 IU/L, the BUN [5] was 14.6 mg/dL and the CRE [5] was 0.2 mg/dL. For the same molecule, the Ca [5] was 11.3 mg/dL, the Cl [5] was 105.2 meq/L and the DBIL [5] was 0.016 mg/dL. It also gave a GLC [5] of 173.6 mg/dL, an IP [5] of 8.5 mg/dL and a K [5] of 3.9 meq/L. The LDH [5] was 81 IU/L, the Na [5] was 142.6 meq/L and the PL [5] was 140 mg/dL. For the same molecule, the RALB [5] was 2.6 g/dL, the TBIL [5] was 0.034 mg/dL and the TG [5] was 99 mg/dL. For the same molecule, the TP [5] was 5.5 g/dL, the gamma-GTP [5] was 1.2 IU/L and the TERMINAL_BW [6] was 201.8 g. The APTT [6] was 15.4 s.
